Assay results as given in patent US9693997B2, “Antiviral compounds” (priority 2013, dated 2017).
Where a name gives a salt, the structure may show the parent alone.

How the values were obtained:
[1] = tested on: pseudotyped VSV G particles (VSVpp) in Huh7-high CD81 cells; test: microbe, parasite or virus in culture; format: cell-based, vesicular stomatitis virus; details: Vesicular stomatitis virus, 72 h, read-out: VSVpp (EC50, μM)
[2] = tested on: Pseudotyped HCV GT1b particles (HCVpp), entry into Huh7-high CD81 cells; test: microbe, parasite or virus in culture; format: cell-based, HCV GT1b Con1 strain; details: Hepatitis C virus, GT1B, 72 h, read-out: HCVpp GT-1b (EC50, μM)

Question: How did the EC50 [1] turn out when CC(C)(C)CCN1CCC(CS(=O)(=O)c2ccc(-c3c(Cl)cc(Nc4n[nH]c(N)n4)cc3C(F)(F)F)cc2)CC1 [Compound 57, N*3*-{2-Chloro-4′-[1-(3,3-dimethyl-butyl)-piperidin-4-ylmethanesulfonyl]-6-trifluoromethyl-biphenyl-4-yl}-1H-[1,2,4]triazole-3,5-diamine; hydrochloride] was run?
Answer: 2.45 µM

Question: What about the EC50 [2] of the same molecule?
Answer: 0.049 µM

Question: Which results are given for COc1ccc(-c2c(Cl)cc(Nc3n[nH]c(N)n3)cc2C(F)(F)F)cc1S(=O)(=O)NC1(C#N)CC1 [Compound 225]?
Answer: EC50 [1]: > 10 µM; EC50 [2]: 0.031 µM

Question: Which results are given for CC(C)(CO)NS(=O)(=O)c1ccc(-c2c(Cl)cc(Nc3n[nH]c(N)n3)cc2C(F)(F)F)cc1 [Compound 226, 4′-(5-Amino-1H-[1,2,4]triazol-3-ylamino)-6′-chloro-2′-trifluoromethyl-biphenyl-4-sulfonic acid (2-hydroxy-1,1-dimethyl-ethyl)-amide]?
Answer: EC50 [1]: 5.39 µM; EC50 [2]: 0.032 µM

Question: With Nc1nc(Nc2cc(Cl)c(-c3ccc4c(c3)NC(=O)CO4)c(C(F)(F)F)c2)n[nH]1 [Compound 47, 6-[4-(5-Amino-1H-[1,2,4]triazol-3-ylamino)-2-chloro-6-trifluoromethyl-phenyl]-4H-benzo[1,4]oxazin-3-one] as the molecule, how does the EC50 [1] read?
Answer: 0.82 µM

Question: And the EC50 [2]?
Answer: 0.544 µM

Question: For Nc1nc(Nc2cc(Cl)c(-c3ccc(S(=O)(=O)N4CCNCC45CC5)cc3)c(C(F)(F)F)c2)n[nH]1 [Compound 214, N3-(4′-(4,7-diazaspiro[2.5]octan-4-ylsulfonyl)-2-chloro-6-(trifluoromethyl)biphenyl-4-yl)-1H-1,2,4-triazole-3,5-diamine hydrochloride], which EC50 [1] is on record?
Answer: 3.36 µM

Question: And the EC50 [2]?
Answer: 0.048 µM

Question: What does the source list for Nc1nc(Nc2cc(Cl)c(-c3ccc(S(=O)(=O)N4CCCC4)cc3)c(Cl)c2)n[nH]1 [Compound 220, N*3*-[2,6-Dichloro-4′-(pyrrolidine-1-sulfonyl)-biphenyl-4-yl]-1H-[1,2,4]triazole-3,5-diamine]?
Answer: EC50 [1]: 24.8 µM; EC50 [2]: 0.028 µM

Question: Which results are given for CC1(NS(=O)(=O)c2ccc(-c3c(Cl)cc(Nc4n[nH]c(N)n4)cc3C(F)(F)F)cc2)COC1 [Compound 60, 4′-(5-Amino-1H-[1,2,4]triazol-3-ylamino)-6′-chloro-2′-trifluoromethyl-biphenyl-4-sulfonic acid (3-methyl-oxetan-3-yl)-amide]?
Answer: EC50 [1]: > 10 µM; EC50 [2]: 0.014 µM

Question: What does the source list for Nc1nc(Nc2cc(Cl)c(-c3ccc(OC4CCNCC4)cc3)c(C(F)(F)F)c2)n[nH]1 [Compound 139, N*3*-[6-Chloro-4′-(piperidin-4-yloxy)-2-trifluoromethyl-biphenyl-4-yl]-1H-[1,2,4]triazole-3,5-diamine hydrochloride]?
Answer: EC50 [1]: 5.66 µM; EC50 [2]: 0.042 µM

Question: For COc1cc(-c2c(Cl)cc(Nc3n[nH]c(N)n3)cc2C(F)(F)F)ccc1S(=O)(=O)N[C@H]1CC[C@H](O)CC1 [Compound 167, 4′-(5-amino-1H-1,2,4-triazol-3-ylamino)-2′-chloro-N-(trans-4-hydroxycyclohexyl)-3-methoxy-6′-(trifluoromethyl)biphenyl-4-sulfonamide], which EC50 [1] is on record?
Answer: > 10 µM

Question: What about the EC50 [2] of the same molecule?
Answer: 0.009 µM

Question: For Nc1nc(Nc2cc(Cl)c(-c3ccc(OC[C@H]4CCCN4)cc3)c(C(F)(F)F)c2)n[nH]1 (stereo in doubt) [Compound 279, N*3*-[6-Chloro-4′-(pyrrolidin-2-ylmethoxy)-2-trifluoromethyl-biphenyl-4-yl]-1H-[1,2,4]triazole-3,5-diamine], which EC50 [1] is on record?
Answer: 37 µM

Question: What about the EC50 [2] of the same molecule?
Answer: 0.193 µM

Question: For CC(C)(NS(=O)(=O)c1ccc(-c2c(Cl)cc(Nc3n[nH]c(N)n3)cc2C(F)(F)F)cc1)C(F)(F)F [Compound 165, 4′-(5-amino-1H-1,2,4-triazol-3-ylamino)-2′-chloro-N-(1,1,1-trifluoro-2-methylpropan-2-yl)-6′-(trifluoromethyl)biphenyl-4-sulfonamide], which EC50 [1] is on record?
Answer: > 10 µM

Question: And the EC50 [2]?
Answer: 0.009 µM

Question: CC(C)(C)OC(=O)N1CCCC1CCOc1ccc(-c2c(Cl)cc(Nc3n[nH]c(N)n3)cc2Cl)cc1 (stereo not shown) [Compound 266, 2-{2-[4′-(5-Amino-1H-[1,2,4]triazol-3-ylamino)-2′,6′-dichloro-biphenyl-4-yloxy]-ethyl}-pyrrolidine-1-carboxylic acid tert-butyl ester] was tested. Which EC50 [1] did it give?
Answer: > 10 µM

Question: What about the EC50 [2] of the same molecule?
Answer: 0.103 µM

Question: What does the source list for Nc1nc(Nc2cc(Cl)c(-c3ccc(OC4CCN(CCC(F)(F)F)CC4)cc3)c(C(F)(F)F)c2)n[nH]1 [Compound 140, N*3*-{6-Chloro-2-trifluoromethyl-4′-[1-(3,3,3-trifluoro-propyl)-piperidin-4-yloxy]-biphenyl-4-yl}-1H-[1,2,4]triazole-3,5-diamine hydrochloride]?
Answer: EC50 [1]: > 10 µM; EC50 [2]: 0.111 µM

Question: What does the source list for Nc1nc(Nc2cc(Cl)c(-c3ccc(S(=O)(=O)NC4CC(O)C4)cc3)c(C(F)(F)F)c2)n[nH]1 (stereo not shown) [Compound 172, 4′-(5-amino-1H-1,2,4-triazol-3-ylamino)-2′-chloro-N-(3-hydroxycyclobutyl)-6′-(trifluoromethyl)biphenyl-4-sulfonamide]?
Answer: EC50 [1]: 45.1 µM; EC50 [2]: 0.032 µM

Question: What does the source list for Nc1nc(Nc2cc(Cl)c(-c3ccc(NC(=O)C4CCC(F)(F)CC4)cc3)c(C(F)(F)F)c2)n[nH]1 [Compound 235, 4,4-Difluorocyclohexanecarboxylic acid [4′-(5-amino-1H-[1,2,4]triazol-3-ylamino)-2′-chloro-6′-trifluoromethyl-biphenyl-4-yl]-amide]?
Answer: EC50 [1]: > 10 µM; EC50 [2]: 0.012 µM

Question: C[C@H](NS(C)(=O)=O)c1ccc(-c2c(Cl)cc(Nc3n[nH]c(N)n3)cc2C(F)(F)F)cc1 [Compound 13, N—{(S)-1-[4′-(5-Amino-1H-[1,2,4]triazol-3-ylamino)-2′-chloro-6′-trifluoromethyl-biphenyl-4-yl]-ethyl}-methanesulfonamide] was tested. Which EC50 [1] did it give?
Answer: 21 µM

Question: What about the EC50 [2] of the same molecule?
Answer: 0.027 µM

Question: What does the source list for CC(C)(C)N1CC(OC(=O)Nc2ccc(-c3c(Cl)cc(Nc4n[nH]c(N)n4)cc3C(F)(F)F)cc2)C1 [Compound 236, [4′-(5-amino-1H-[1,2,4]triazol-3-ylamino)-2′-chloro-6′-trifluoromethyl-biphenyl-4-yl]-carbamic acid 1-tert-butyl-azetidin-3-yl ester]?
Answer: EC50 [1]: > 10 µM; EC50 [2]: 0.045 µM

Question: Which results are given for Nc1nc(Nc2cc(Cl)c(-c3ccc(S(=O)(=O)NC[C@@H]4CCCN4)cc3)c(C(F)(F)F)c2)n[nH]1 [Compound 27, 4′-(5-Amino-1H-[1,2,4]triazol-3-ylamino)-2′-chloro-6′-trifluoromethyl-biphenyl-4-sulfonic acid ((S)-1-pyrrolidin-2-ylmethyl)-amide; hydrochloride]?
Answer: EC50 [1]: 30.1 µM; EC50 [2]: 0.052 µM

Question: Which results are given for CS(=O)(=O)c1cccc(-c2c(F)cc(Nc3nc(N)n[nH]3)cc2F)c1 [Compound 80, N^5-(2,6-difluoro-3′-(methylsulfonyl)biphenyl-4-yl)-1H-[1,2,4]-triazole-3,5-diamine]?
Answer: EC50 [1]: > 10 µM; EC50 [2]: 0.286 µM

Question: Which results are given for Nc1nc(Nc2cc(Cl)c(-c3ccc(OCC4CNC4)cc3)c(C(F)(F)F)c2)n[nH]1 [Compound 37, N*3*-[4′-(Azetidin-3-ylmethoxy)-2-chloro-6-trifluoromethyl-biphenyl-4-yl]-1H-[1,2,4]triazole-3,5-diamine; hydrochloride]?
Answer: EC50 [1]: > 10 µM; EC50 [2]: 0.107 µM

Question: Nc1nc(Nc2cc(Cl)c(-c3ccc(S(=O)(=O)CC4CCCNC4)cc3)c(C(F)(F)F)c2)n[nH]1 (stereo not shown) [Compound 25, N*3*-[2-Chloro-4′-(piperidin-3-ylmethanesulfonyl)-6-trifluoromethyl-biphenyl-4-yl]-1H-[1,2,4]triazole-3,5-diamine; hydrochloride] was tested. Which EC50 [1] did it give?
Answer: > 10 µM

Question: And the EC50 [2]?
Answer: 0.059 µM

Question: Which EC50 [1] does the source give for Nc1nc(Nc2cc(Cl)c(-c3ccc(N4CCCC4=O)cc3)c(Cl)c2)n[nH]1 [Compound 43, 1-[4′-(5-Amino-1H-[1,2,4]triazol-3-ylamino)-2′,6′-dichloro-biphenyl-4-yl]-pyrrolidin-2-one] here?
Answer: 15.4 µM

Question: And the EC50 [2]?
Answer: 0.169 µM

Question: Which EC50 [1] does the source give for Nc1nc(Nc2cc(Cl)c(-c3ccc(OC[C@H]4CCCN4)cc3)c(Cl)c2)n[nH]1 [Compound 272, N*3*-[2,6-Dichloro-4′-((R)-1-pyrrolidin-2-ylmethoxy)-biphenyl-4-yl]-1H-[1,2,4]triazole-3,5-diamine] here?
Answer: 4.49 µM

Question: What about the EC50 [2] of the same molecule?
Answer: 0.147 µM

Question: Which results are given for CC(C)(C)OC(=O)N1CCC[C@H]1COc1ccc(-c2c(Cl)cc(Nc3n[nH]c(N)n3)cc2C(F)(F)F)cc1 [Compound 277, (S)-2-[4′-(5-Amino-1H-[1,2,4]triazol-3-ylamino)-2′-chloro-6′-trifluoromethyl-biphenyl-4-yloxymethyl]-pyrrolidine-1-carboxylic acid tert-butyl ester]?
Answer: EC50 [1]: 27.9 µM; EC50 [2]: 0.312 µM

Question: With CN(C)CCOc1ccc(-c2c(Cl)cc(Nc3n[nH]c(N)n3)cc2Cl)cc1 [Compound 269, N*3*-[2,6-Dichloro-4′-(2-dimethylamino-ethoxy)-biphenyl-4-yl]-1H-[1,2,4]triazole-3,5-diamine] as the molecule, how does the EC50 [1] read?
Answer: 6.09 µM

Question: What about the EC50 [2] of the same molecule?
Answer: 0.122 µM

Question: Which EC50 [1] does the source give for Nc1n[nH]c(Nc2cc(F)c(-c3ccc(F)cc3)c(C(F)(F)F)c2)n1 [Compound 245, N^5-[6,4′-Difluoro-2-trifluoromethylbiphenyl-4-yl]-1H-[1,2,4]-triazole-3,5-diamine] here?
Answer: 17.1 µM

Question: And the EC50 [2]?
Answer: 1.47 µM

Question: How did the EC50 [1] turn out when Nc1nc(Nc2cc(Cl)c(-c3ccc(S(=O)(=O)CC4CC4)cc3)c(C(F)(F)F)c2)n[nH]1 [Compound 64, N*3*-(6-Chloro-4′-cyclopropylmethanesulfonyl-2-trifluoromethyl-biphenyl-4-yl)-1H-1,2,4-triazole-3,5-diamine] was run?
Answer: 9.54 µM

Question: What about the EC50 [2] of the same molecule?
Answer: 0.023 µM

Question: What does the source list for CS(=O)(=O)c1ccc(-c2c(F)cc(Nc3n[nH]c(N)n3)cc2Cl)cc1 [Compound 30, N*3*-(2-Chloro-6-fluoro-4′-methanesulfonyl-biphenyl-4-yl)-1H-[1,2,4]triazole-3,5-diamine]?
Answer: EC50 [1]: 1.53 µM; EC50 [2]: 0.107 µM

Question: What does the source list for CNCCOc1ccc(-c2c(Cl)cc(Nc3n[nH]c(N)n3)cc2C(F)(F)F)cc1 [Compound 126, N*3*-[6-Chloro-4′-(2-methylamino-ethoxy)-2-trifluoromethyl-biphenyl-4-yl]-1H-[1,2,4]triazole-3,5-diamine hydrochloride]?
Answer: EC50 [1]: > 10 µM; EC50 [2]: 0.088 µM
